Usually TGI stands for the concentration giving total growth inhibition. A high value points to less potent growth arrest. By GI50 is commonly meant the concentration that inhibits growth by half.

“And” between values parts separate entries of the source, which are not always exact repeats. Identical values can stand only once.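 Five concentrations, 48 hours, 96-well plates. GI50: concentration for 50% inhibition of growth. TGI is the concentration that stops growth completely.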

In the first assay the test system is ACHN renal. Put plainly: DTP human tumour cell line panel, 48 h.
`NC(=O)N/N=C(\Cc1nc2ccc(Cl)cc2[nH]c1=O)C(=O)Nc1ccc(Cl)cc1Cl` registered a total growth inhibition concentration (TGI) above 100 µM.

Turning to `O=c1nc(N2CCN(c3ccccc3)CC2)ccn1C1OC(CO)C(O)C1O` (stereo unspecified), the TGI is above 100 µM.

With `OCCCCCNc1c2ccccc2nc2ccccc12`, the TGI came to 1.42 µM.

As for `CCOP(=O)(OCC)/C(C#N)=C/c1cnc(-c2ccccc2)[nH]1`, the TGI was above 100 µM.

Take `CC(=O)OCC1OC(OC(C)(C)CC/C=C(\C)[C@@H]2C/C=C(\C)CC/C=C(\C)CC2)C(O)C(O)C1OC(C)=O` (stereo partly specified): the GI50 was > 65.1 µM and 13.8 µM; the TGI is > 100 µM and 26.7 µM.

`CN(C)CCCOC(=O)C(c1ccccc1)C1(O)CCSCC1` (stereo unspecified) yielded a concentration for total growth inhibition (TGI) above 100 µM.

Turning to `COCOC1/C=C/CCCCC2=C(C)C=C(C1)O2` (stereo unspecified), the TGI is above 100 µM.

As for `O=C(O)c1cc2c(cc1CC(Cc1ccc3c(c1)CCC3)C(=O)O)CCC2` (stereo unspecified), the concentration for total growth inhibition (TGI) is above 100 µM.

Consider `C[C@@]12[C@H]3CC[C@@H]1[C@H](O)C(=O)N2CC3`, for which the TGI is above 100 µM.

Turning to `O=C1CCC[C@@H]2NC[C@@H](c3ccc4c(c3)OCO4)[C@H]12`, the TGI was above 25 µM.

`Cc1ccc([C@@H]2[C@@H](C(=O)c3ccccn3)[C@H](c3ccc(C)cc3)C[C@](O)(c3ccccn3)[C@H]2C(=O)c2ccccn2)cc1` returned a concentration for total growth inhibition (TGI) above 40.4 µM.

`O=C1C(Cl)=C(N2CCN(C3=C(Cl)C(=O)c4ccccc4C3=O)CC2)C(=O)c2ccccc21` came in with a total growth inhibition concentration (TGI) of 3.09 µM. In other words, the single-digit micromolar range.

Regarding `CC(C)(N=NC(C)(C)C(=O)NCCO)C(=O)NCCO`, the TGI is above 100 µM.

In turn, `CCOc1cc(NC(C)=O)ccc1C(=O)NNC(=O)c1ccccc1OC(C)=O` came in with a TGI above 100 µM.

`Cc1nnc2n1N=C(c1cc(F)c(Cl)cc1Cl)/C(=C/c1ccc(Cl)cc1)S2` registered a total growth inhibition concentration (TGI) of 41.7 µM.

Regarding `CC(O[Si](c1ccccc1)(c1ccccc1)C(C)(C)C)[C@H](NC(=O)OC(C)(C)C)C(=O)O[Si](c1ccccc1)(c1ccccc1)C(C)(C)C` (stereo partly specified), the total growth inhibition concentration (TGI) was 23.9 µM. Compared with the last compound, the TGI is about 1.7-fold lower.

`COc1cc(/C=C2/C(=O)N(C(=O)c3ccccc3O)N=C2C)cc(OC)c1OC` came in with a TGI above 100 µM.

The compound `CCCCCCCCCCCCCCCCCCNc1ccn(C2OC(COP(=O)(O)OCC3OC(n4ccc(NC(=O)CCCCCCCCCCCCCCCCC)nc4=O)C(OC(C)=O)C3OC(C)=O)C(OC(C)=O)C2OC(C)=O)c(=O)n1` (stereo unspecified) yielded a total growth inhibition concentration (TGI) above 100 µM.

As for `COc1cccc(-c2cc(=O)c3ccccc3o2)c1N`, the TGI was above 100 µM.

With `Cc1nc2c(sc(=S)n2-c2ccccc2)c2nc3ncccc3n12`, the TGI was above 100 µM.

In turn, `Cc1c(-c2nc3ccccc3[nH]2)c(=O)n(-c2ccccc2)n1C` registered a TGI above 100 µM.

Consider `Cc1nnc(Nc2ccccc2)o1`, for which the TGI was above 100 µM.

In the case of `COc1cc(O)c(/C=N/N=C(\N)NO)c(OC)c1`, the total growth inhibition concentration (TGI) is above 10 µM.

Compound `CCCCN1C(=O)CC2[C@@H]3CCc4cc(OC(C)=O)ccc4C3CC[C@]2(C)C1=O` (stereo partly specified) registered a TGI above 10 µM.

In another assay the test system is CAKI-1 renal. Kind of assay: DTP human tumour cell line panel, 48 h.
As to `NC(=O)N/N=C(\Cc1nc2ccc(Cl)cc2[nH]c1=O)C(=O)Nc1ccc(Cl)cc1Cl`, the TGI was above 100 µM.

The compound `O=c1nc(N2CCN(c3ccccc3)CC2)ccn1C1OC(CO)C(O)C1O` (stereo unspecified) gave a concentration for total growth inhibition (TGI) above 100 µM.

In turn, `OCCCCCNc1c2ccccc2nc2ccccc12` showed a concentration for total growth inhibition (TGI) of 8.31 µM.

Regarding `CCOP(=O)(OCC)/C(C#N)=C/c1cnc(-c2ccccc2)[nH]1`, the TGI was above 100 µM.

With `CC(=O)OCC1OC(OC(C)(C)CC/C=C(\C)[C@@H]2C/C=C(\C)CC/C=C(\C)CC2)C(O)C(O)C1OC(C)=O` (stereo partly specified), the GI50 was 58.6 µM and 18.7 µM; the TGI is > 100 µM and 35.3 µM.

Take `CN(C)CCCOC(=O)C(c1ccccc1)C1(O)CCSCC1` (stereo unspecified): the concentration for total growth inhibition (TGI) was above 100 µM.

In the case of `COCOC1/C=C/CCCCC2=C(C)C=C(C1)O2` (stereo unspecified), the TGI was above 100 µM.

Take `O=C(O)c1cc2c(cc1CC(Cc1ccc3c(c1)CCC3)C(=O)O)CCC2` (stereo unspecified): the total growth inhibition concentration (TGI) is above 100 µM.

For the compound `C[C@@]12[C@H]3CC[C@@H]1[C@H](O)C(=O)N2CC3`, the TGI is above 100 µM.

`O=C1CCC[C@@H]2NC[C@@H](c3ccc4c(c3)OCO4)[C@H]12`: the TGI was above 25 µM.

As for `Cc1ccc([C@@H]2[C@@H](C(=O)c3ccccn3)[C@H](c3ccc(C)cc3)C[C@](O)(c3ccccn3)[C@H]2C(=O)c2ccccn2)cc1`, the TGI is above 100 µM.

`O=C1C(Cl)=C(N2CCN(C3=C(Cl)C(=O)c4ccccc4C3=O)CC2)C(=O)c2ccccc21` came in with a TGI of 3.48 µM.

The compound `CC(C)(N=NC(C)(C)C(=O)NCCO)C(=O)NCCO` yielded a TGI above 100 µM.

For the compound `CCOc1cc(NC(C)=O)ccc1C(=O)NNC(=O)c1ccccc1OC(C)=O`, the concentration for total growth inhibition (TGI) was above 50 µM.

`Cc1nnc2n1N=C(c1cc(F)c(Cl)cc1Cl)/C(=C/c1ccc(Cl)cc1)S2` showed a TGI of 41.4 µM. This lies in the double-digit micromolar range.

In turn, `CC(O[Si](c1ccccc1)(c1ccccc1)C(C)(C)C)[C@H](NC(=O)OC(C)(C)C)C(=O)O[Si](c1ccccc1)(c1ccccc1)C(C)(C)C` (stereo partly specified) returned a TGI of 27 µM.

In turn, `COc1cc(/C=C2/C(=O)N(C(=O)c3ccccc3O)N=C2C)cc(OC)c1OC` showed a TGI above 25.8 µM.

Regarding `CCCCCCCCCCCCCCCCCCNc1ccn(C2OC(COP(=O)(O)OCC3OC(n4ccc(NC(=O)CCCCCCCCCCCCCCCCC)nc4=O)C(OC(C)=O)C3OC(C)=O)C(OC(C)=O)C2OC(C)=O)c(=O)n1` (stereo unspecified), the TGI is above 100 µM.

Take `COc1cccc(-c2cc(=O)c3ccccc3o2)c1N`: the TGI is above 100 µM.

As for `Cc1nc2c(sc(=S)n2-c2ccccc2)c2nc3ncccc3n12`, the concentration for total growth inhibition (TGI) is above 100 µM.

`Cc1c(-c2nc3ccccc3[nH]2)c(=O)n(-c2ccccc2)n1C` gave a TGI above 100 µM.

Take `Cc1nnc(Nc2ccccc2)o1`: the TGI was above 100 µM.

On to `COc1cc(O)c(/C=N/N=C(\N)NO)c(OC)c1`, for which the TGI was above 10 µM.

The compound `CCCCN1C(=O)CC2[C@@H]3CCc4cc(OC(C)=O)ccc4C3CC[C@]2(C)C1=O` (stereo partly specified) had a TGI above 10 µM.

The test system of the next assay is CCRF-CEM leukemia. Kind of assay: DTP human tumour cell line panel, 48 h.
For the compound `NC(=O)N/N=C(\Cc1nc2ccc(Cl)cc2[nH]c1=O)C(=O)Nc1ccc(Cl)cc1Cl`, the TGI is above 100 µM.

`O=c1nc(N2CCN(c3ccccc3)CC2)ccn1C1OC(CO)C(O)C1O` (stereo unspecified) showed a TGI above 100 µM.

Compound `OCCCCCNc1c2ccccc2nc2ccccc12` registered a total growth inhibition concentration (TGI) above 61.7 µM.

`CCOP(=O)(OCC)/C(C#N)=C/c1cnc(-c2ccccc2)[nH]1` registered a TGI above 100 µM.

For `CC(=O)OCC1OC(OC(C)(C)CC/C=C(\C)[C@@H]2C/C=C(\C)CC/C=C(\C)CC2)C(O)C(O)C1OC(C)=O` (stereo partly specified), the concentration for total growth inhibition (TGI) was 20.8 µM and 67 µM.

Compound `CN(C)CCCOC(=O)C(c1ccccc1)C1(O)CCSCC1` (stereo unspecified) displayed a total growth inhibition concentration (TGI) above 100 µM.

Consider `COCOC1/C=C/CCCCC2=C(C)C=C(C1)O2` (stereo unspecified), for which the TGI is above 100 µM.

In turn, `O=C(O)c1cc2c(cc1CC(Cc1ccc3c(c1)CCC3)C(=O)O)CCC2` (stereo unspecified) had a TGI above 100 µM.

`C[C@@]12[C@H]3CC[C@@H]1[C@H](O)C(=O)N2CC3` yielded a concentration for total growth inhibition (TGI) above 100 µM.

As for `O=C1CCC[C@@H]2NC[C@@H](c3ccc4c(c3)OCO4)[C@H]12`, the TGI is above 25 µM.

Regarding `Cc1ccc([C@@H]2[C@@H](C(=O)c3ccccn3)[C@H](c3ccc(C)cc3)C[C@](O)(c3ccccn3)[C@H]2C(=O)c2ccccn2)cc1`, the concentration for total growth inhibition (TGI) stood at 4.43 µM.
